Patent publication US11498903B2 (BRISTOL-MYERS SQUIBB COMPANY, priority 2017, dated 2022)
Read-outs that look alike come from different tables or passages of the source.

Molecular target: T1, human APJ receptor (Homo sapiens, UniProt P35414)
T1 construct: expressed in transfected cells
T1 sequence (P35414 1-380): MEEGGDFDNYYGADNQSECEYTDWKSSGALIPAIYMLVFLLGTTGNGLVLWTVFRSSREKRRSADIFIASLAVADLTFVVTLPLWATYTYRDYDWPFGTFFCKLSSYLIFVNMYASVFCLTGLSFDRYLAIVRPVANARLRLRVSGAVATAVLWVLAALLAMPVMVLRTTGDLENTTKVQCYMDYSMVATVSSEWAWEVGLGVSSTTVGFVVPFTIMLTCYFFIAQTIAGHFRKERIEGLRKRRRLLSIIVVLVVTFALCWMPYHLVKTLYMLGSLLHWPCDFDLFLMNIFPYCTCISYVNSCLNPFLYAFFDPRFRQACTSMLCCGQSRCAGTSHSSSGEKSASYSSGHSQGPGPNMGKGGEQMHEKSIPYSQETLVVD
Assay: Intracellular cAMP accumulation assay (APJ hcAMP, HTRF)
Type: cell-based
Procedure, shortened: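 HEK293 cells stably expressing human APJ, 5,000/well, incubated 30 min at room temperature with compound plus […] and 2 μM forskolin. cAMP read by HTRF against a cAMP standard curve; EC50 from variable-slope sigmoidal fit, Ymax as % of (Pyr1)apelin-13 inhibition.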

[1] = Table 1, HEK293 cells stably expressing human APJ receptor, inhibition of forskolin-mediated cAMP production, read-out: APJ hcAMP EC50
[2] = Table 3, HEK293 cells stably expressing human APJ receptor, read-out: APJ cAMP Human EC50
[3] = human APJ, cAMP, potency range class, read-out: APJ cAMP Human EC50

| SMILES | EC50 [1] [nM] | EC50 [2] [nM] | EC50 [3] [nM] |
| --- | --- | --- | --- |
| COC[C@@H](NC(=O)c1ccc(-c2cc(Cl)ccc2-c2nc3ccccc3n2C)c(C(=O)O)c1)c1ccccc1 [Example 138, 5′-chloro-4-{[(1S)-2-methoxy-1-phenylethyl]carbamoyl}-2′-(1-methyl-1H-1,3-benzodiazol-2-yl)-[1,1′-biphenyl]-2-carboxylic acid] | 101 to 500 | 101 to 500 |  |
| CCC[C@@H](NC(=O)c1ccc(-c2c(C)cccc2-c2nc3ccccc3[nH]2)c(C(=O)O)c1)c1ccccc1 [Example 139, 2′-(1H-1,3-benzodiazol-2-yl)-6′-methyl-4-{[(1R)-1-phenylbutyl]carbamoyl}-[1,1′-biphenyl]-2-carboxylic acid] |  | < 10 |  |
| CCC[C@@H](NC(=O)c1ccc(-c2c(F)cccc2-c2nc3ccccc3[nH]2)c(C(=O)O)c1)c1ccccc1 [Example 140, 2′-(1H-1,3-benzodiazol-2-yl)-6′-fluoro-4-{[(1R)-1-phenylbutyl]carbamoyl}-[1,1′-biphenyl]-2-carboxylic acid] |  | < 10 |  |
| CCC[C@@H](NC(=O)c1ccc(-c2c(C)cccc2-c2nc3cc(OC)ccc3[nH]2)c(C(=O)O)c1)c1ccccc1 [Example 142, 2′-(5-methoxy-1H-1,3-benzodiazol-2-yl)-6′-methyl-4-{[(1R)-1-phenylbutyl]carbamoyl}-[1,1′-biphenyl]-2-carboxylic acid] | < 10 | < 10 |  |
| CCC[C@@H](NC(=O)c1ccc(-c2c(F)cccc2-c2nc3cc(OC)ccc3[nH]2)c(C(=O)O)c1)c1ccccc1 [Example 143, 2′-fluoro-6′-(5-methoxy-1H-1,3-benzodiazol-2-yl)-4-{[(1R)-1-phenylbutyl]carbamoyl}-[1,1′-biphenyl]-2-carboxylic acid] |  | < 10 |  |
| CCC[C@@H](NC(=O)c1ccc(-c2c(C)cccc2-c2nc3cc(C(C)(C)C)ccc3[nH]2)c(C(=O)O)c1)c1ccccc1 [Example 144, 2′-(5-tert-butyl-1H-1,3-benzodiazol-2-yl)-6′-methyl-4-{[(1R)-1-phenylbutyl]carbamoyl}-[1,1′-biphenyl]-2-carboxylic acid] | < 10 | < 10 |  |
| CCC[C@@H](NC(=O)c1ccc(-c2c(F)cccc2-c2nc3cc(C(C)(C)C)ccc3[nH]2)c(C(=O)O)c1)c1ccccc1 [Example 145, 2′-(5-tert-butyl-1H-1,3-benzodiazol-2-yl)-6′-fluoro-4-{[(1R)-1-phenylbutyl]carbamoyl}-[1,1′-biphenyl]-2-carboxylic acid] | < 10 | < 10 |  |
| CCC[C@@H](NC(=O)c1ccc(-c2c(C)cccc2-c2nc3c(O)cccc3[nH]2)c(C(=O)O)c1)c1ccccc1 [Example 148, 2′-(4-hydroxy-1H-1,3-benzodiazol-2-yl)-6′-methyl-4-{[(1R)-1-phenylbutyl]carbamoyl}-[1,1′-biphenyl]-2-carboxylic acid] | < 10 | < 10 |  |
| CCC[C@@H](NC(=O)c1ccc(-c2c(C)cccc2-c2nc3cnccc3[nH]2)c(C(=O)O)c1)c1ccccc1 [Example 149, 2′-{1H-imidazo[4,5-c]pyridin-2-yl}-6′-methyl-4-{[(1R)-1-phenylbutyl]carbamoyl}-[1,1′-biphenyl]-2-carboxylic acid] |  | < 10 |  |
| CCCC(CCC)NC(=O)c1ccc(-c2c(Cl)cccc2-c2nc3ccccc3[nH]2)c(C(=O)O)c1 [Example 153, (S)-2′-(1H-1,3-benzodiazol-2-yl)-6′-chloro-4-[(heptan-4-yl)carbamoyl]-[1,1′-biphenyl]-2-carboxylic acid] |  | 10 to 100 |  |
| CCOCC(NC(=O)c1ccc(-c2c(Cl)cccc2-c2nc3ccccc3[nH]2)c(C(=O)O)c1)c1ccccc1 [Example 157, (S)-2′-(1H-1,3-benzodiazol-2-yl)-6′-chloro-4-{[(1S)-2-ethoxy-1-phenylethyl]carbamoyl}-[1,1′-biphenyl]-2-carboxylic acid] | < 10 | < 10 |  |

Continued, values first:

| EC50 [1] [nM] | EC50 [2] [nM] | EC50 [3] [nM] | SMILES |
| --- | --- | --- | --- |
| < 10 |  | < 10 | CCCC(NC(=O)c1ccc(-c2c(Cl)cccc2-c2nc3ccccc3[nH]2)c(C(=O)O)c1)c1cccc(Cl)c1 [Example 167, (S)-2′-(1H-1,3-benzodiazol-2-yl)-6′-chloro-4-{[1-(3-chlorophenyl)butyl]carbamoyl}-[1,1′-biphenyl]-2-carboxylic acid] |
| < 10 |  | < 10 | CC[C@H](NC(=O)c1ccc(-c2c(Cl)cccc2-c2nc3ccccc3[nH]2)c(C(=O)O)c1)c1ccc(Cl)cc1OC [Example 170, (S)-2′-(1H-1,3-benzodiazol-2-yl)-6′-chloro-4-{[1-(4-chloro-2-methoxyphenyl)propyl]carbamoyl}-[1,1′-biphenyl]-2-carboxylic acid] |
| < 10 |  | < 10 | CCC[C@H](NC(=O)c1ccc(-c2c(Cl)cccc2-c2nc3ccccc3[nH]2)c(C(=O)O)c1)c1ccccc1F [Example 174, (S)-2′-(1H-1,3-benzodiazol-2-yl)-6′-chloro-4-{[1-(2-fluorophenyl)butyl]carbamoyl}-[1,1-biphenyl]-2-carboxylic acid] |
| < 10 |  | < 10 | CCCC(NC(=O)c1ccc(-c2c(Cl)cccc2-c2nc3ccccc3[nH]2)c(C(=O)O)c1)c1ccc(Cl)cc1OC [Example 179, (S)-2′-(1H-1,3-benzodiazol-2-yl)-6′-chloro-4-{[1-(4-chloro-2-methoxyphenyl)butyl]carbamoyl}-[1,1′-biphenyl]-2-carboxylic acid] |
| < 10 |  | < 10 | CCCC(NC(=O)c1ccc(-c2c(Cl)cccc2-c2nc3ccccc3[nH]2)c(C(=O)O)c1)c1ccccn1 [Example 180, (S)-2′-(1H-1,3-benzodiazol-2-yl)-6′-chloro-4-{[1-(pyridin-2-yl)butyl]carbamoyl}-[1,1′-biphenyl]-2-carboxylic acid] |
| < 10 |  | < 10 | CCC[C@H](NC(=O)c1ccc(-c2c(Cl)cccc2-c2nc3ccccc3[nH]2)c(C(=O)O)c1)c1ccc(Cl)cc1C(F)(F)F [Example 181, (S)-2′-(1H-1,3-benzodiazol-2-yl)-6′-chloro-4-({1-[4-chloro-2-(trifluoromethyl)phenyl]butyl}carbamoyl)-[1,1′-biphenyl]-2-carboxylic acid] |
| < 10 |  | < 10 | CCC[C@H](NC(=O)c1ccc(-c2c(Cl)cccc2-c2nc3ccccc3[nH]2)c(C(=O)O)c1)c1ccc(Cl)cc1 [Example 187, (S)-2′-(1H-1,3-benzodiazol-2-yl)-6′-chloro-4-{[1-(4-chlorophenyl)butyl]carbamoyl}-[1,1′-biphenyl]-2-carboxylic acid] |
| 10 to 100 |  | 10 to 100 | CCC[C@H](NC(=O)c1ccc(-c2c(Cl)cccc2-c2nc3ccccc3[nH]2)c(C(=O)O)c1)c1cccnc1 [Example 190, (S)-2′-(1H-1,3-benzodiazol-2-yl)-6′-chloro-4-{[1-(pyridin-3-yl)butyl]carbamoyl}[1,1′-biphenyl]-2-carboxylic acid] |
| 10 to 100 |  |  | CCC[C@H](NC(=O)c1ccc(-c2c(Cl)cccc2-c2nc3ccccc3[nH]2)c(C(=O)O)c1)c1cccnc1 [Example 193, (S)-2′-(1H-1,3-benzodiazol-2-yl)-6′-chloro-4-{[1-(pyridin-3-yl)butyl]carbamoyl}-[1,1′-biphenyl]-2-carboxylic acid] |
| 10 to 100 |  | 10 to 100 | CCCC(NC(=O)c1ccc(-c2c(Cl)cccc2-c2nc3ccccc3[nH]2)c(C(=O)O)c1)c1cncs1 [Example 194, (S)-2′-(1H-1,3-benzodiazol-2-yl)-6′-chloro-4-{[1-(1,3-thiazol-5-yl)butyl]carbamoyl}-[1,1′-biphenyl]-2-carboxylic acid] |
| < 10 |  | < 10 | CCC[C@H](NC(=O)c1ccc(-c2c(Cl)cccc2-c2nc3cc(Cl)c(F)cc3[nH]2)c(C(=O)O)c1)C1CCCCCC1 [Example 202, (S)-2′-chloro-6′-(5-chloro-6-fluoro-1H-1,3-benzodiazol-2-yl)-4-[(1-cycloheptylbutyl)carbamoyl]-[1,1′-biphenyl]-2-carboxylic acid] |
| 10 to 100 |  | 10 to 100 | CCCC(NC(=O)c1ccc(-c2cc(Cl)ccc2-c2nc3cc(C(C)(C)C)ccc3[nH]2)c(C(=O)OC)c1)c1ccccc1OC (stereo not drawn) [Example 203, methyl 2′-(5-tert-butyl-1H-1,3-benzodiazol-2-yl)-5′-chloro-4-{[1-(2-methoxyphenyl)butyl]carbamoyl}-[1,1′-biphenyl]-2-carboxylate] |
| 10 to 100 |  | 10 to 100 | COc1cc2nc(-c3cccc(Cl)c3-c3ccc(C(=O)NC(c4ccc(Cl)cc4)C4CC4)cc3C(=O)NS(C)(=O)=O)[nH]c2cc1F (stereo not drawn) [Example 206, 2′-chloro-N4-[(4-chlorophenyl)(cyclopropyl)methyl]-6′-(6-fluoro-5-methoxy-1H-1,3-benzodiazol-2-yl)-N2-methanesulfonyl-[1,1′-biphenyl]-2,4-dicarboxamide] |
| < 10 |  | < 10 | CCCC(NC(=O)c1ccc(-c2cc(Cl)ccc2-c2nc3ccccc3[nH]2)c(C(=O)O)c1)c1ccccc1OC (stereo not drawn) [Example 207, 2′-(1H-1,3-benzodiazol-2-yl)-5′-chloro-4-{[1-(2-methoxyphenyl)butyl]carbamoyl}-[1,1′-biphenyl]-2-carboxylic acid] |
| < 10 |  |  | CCCC(NC(=O)c1ccc(-c2cc(Cl)ccc2-c2nc3ccccc3[nH]2)c(C(=O)O)c1)c1ccccc1OC (stereo not drawn) [Example 208, 2′-(1H-1,3-benzodiazol-2-yl)-5′-chloro-4-{[1-(2-methoxyphenyl)butyl]carbamoyl}-[1,1′-biphenyl]-2-carboxylic acid] |
